# Laboratory results taken from US20220347196A1, “COMPOSITIONS AND METHODS FOR IMPROVING GASTROINTESTINAL FUNCTION IN SUBJECTS WITH RENAL DISEASE” (priority 2021, published 2022).
# Tests used:
# [1] = system: subjects with ESRD on hemodialysis with constipation; experiment: Bowel movement consistency and regularity after 12 week 2′-FL treatment; format: in vivo, human; conditions: five subjects, 3.3 grams/day for 12 weeks
# Protocol: Five subjects with ESRD on hemodialysis with constipation were treated with 2′-FL (3.3 grams/day) for 12 weeks.
# [2] = system: Patients With ESRD On Hemodialysis With Constipation; experiment: Nutrition, hemoglobin and inflammatory biomarkers measured each month during 12 week HMO treatment; format: in vivo, human
# Protocol: Five subjects with ESRD on hemodialysis with constipation were treated with 2′-FL (3.3 grams/day) for 12 weeks. Meanwhile, nutrition, hemoglobin, and inflammatory biomarkers were measured in each of the these patients at each month during the treatment.
# [3] = Patient 1, month of treatment 0 (baseline), 3.3 grams/day
# [4] = Patient 1, month of treatment 1, 3.3 grams/day
# [5] = Patient 1, month of treatment 2, 3.3 grams/day
# [6] = Patient 1, month of treatment 3, 3.3 grams/day
# [7] = Patient 2, month of treatment 0 (baseline), 3.3 grams/day
# [8] = Patient 2, month of treatment 1, 3.3 grams/day
# [9] = Patient 2, month of treatment 2, 3.3 grams/day
# [10] = Patient 2, month of treatment 3, 3.3 grams/day
# [11] = Patient 3, month of treatment 0 (baseline), 3.3 grams/day
# [12] = Patient 3, month of treatment 1, 3.3 grams/day
# [13] = Patient 3, month of treatment 2, 3.3 grams/day
# [14] = Patient 3, month of treatment 3, 3.3 grams/day
# [15] = Patient 4, month of tx 0 (baseline), 3.3 grams/day
# [16] = Patient 4, month of tx 1, 3.3 grams/day
# [17] = Patient 4, month of tx 2, 3.3 grams/day
# [18] = Patient 4, month of tx 3, 3.3 grams/day
# [19] = Patient 5, month of treatment 0 (baseline), 3.3 grams/day
# [20] = Patient 5, month of treatment 1, 3.3 grams/day
# [21] = Patient 5, month of treatment 2, 3.3 grams/day
# [22] = Patient 5, month of treatment 3, 3.3 grams/day
# [23] = five subjects, 3.3 grams/day for 12 weeks
substance,measurement,setting,value
2′-fucosyllactose [2′-FL],bowel movement consistency,[1],from hard stool to soft
same,bowel movement regularity (on average),[1],from one bowel movement every other day to one bowel movement every day
same,Albumin,[2]; [3],3.6 g/dL
same,Ferritin,[2]; [3],548 ng/mL
same,Hg,[2]; [3],10.6 g/dL
same,Albumin,[2]; [4],3.7 g/dL
same,CRP,[2]; [4],0.7 mg/L
same,Ferritin,[2]; [4],546 ng/mL
same,Hg,[2]; [4],10.5 g/dL
same,Albumin,[2]; [5],3.8 g/dL
same,CRP,[2]; [5],0.5 mg/L
same,Ferritin,[2]; [5],503 ng/mL
same,Hg,[2]; [5],11.2 g/dL
same,Albumin,[2]; [6],3.5 g/dL
same,CRP,[2]; [6],0.3 mg/L
same,Ferritin,[2]; [6],364 ng/mL
same,Hg,[2]; [6],10.7 g/dL
same,Albumin,[2]; [7],4.2 g/dL
same,Ferritin,[2]; [7],1250 ng/mL
same,Hg,[2]; [7],11.2 g/dL
same,Albumin,[2]; [8],4.3 g/dL
same,CRP,[2]; [8],6.2 mg/L
same,Ferritin,[2]; [8],1188 ng/mL
same,Hg,[2]; [8],11.3 g/dL
same,Albumin,[2]; [9],4.2 g/dL
same,CRP,[2]; [9],4.3 mg/L
same,Ferritin,[2]; [9],1000 ng/mL
same,Hg,[2]; [9],10.6 g/dL
same,Albumin,[2]; [10],4.2 g/dL
same,CRP,[2]; [10],2.3 mg/L
same,Ferritin,[2]; [10],899 ng/mL
same,Hg,[2]; [10],10.2 g/dL
same,Albumin,[2]; [11],3.9 g/dL
same,Ferritin,[2]; [11],1243 ng/mL
same,Hg,[2]; [11],10.5 g/dL
same,Albumin,[2]; [12],4 g/dL
same,CRP,[2]; [12],19 mg/L
same,Ferritin,[2]; [12],1135 ng/mL
same,Hg,[2]; [12],11.3 g/dL
same,Albumin,[2]; [13],3.9 g/dL
same,CRP,[2]; [13],1.9 mg/L
same,Ferritin,[2]; [13],827 ng/mL
same,Hg,[2]; [13],10.9 g/dL
same,Albumin,[2]; [14],4 g/dL
same,CRP,[2]; [14],1.6 mg/L
same,Ferritin,[2]; [14],907 ng/mL
same,Hg,[2]; [14],11.2 g/dL
same,Albumin,[2]; [15],3.9 g/dL
same,Ferritin,[2]; [15],1487 ng/mL
same,Hg,[2]; [15],10.8 g/dL
same,Albumin,[2]; [16],3.9 g/dL
same,CRP,[2]; [16],2 mg/L
same,Ferritin,[2]; [16],1208 ng/mL
same,Hg,[2]; [16],10.5 g/dL
same,Albumin,[2]; [17],3.9 g/dL
same,CRP,[2]; [17],1.5 mg/L
same,Ferritin,[2]; [17],749 ng/mL
same,Hg,[2]; [17],11.3 g/dL
same,Albumin,[2]; [18],3.8 g/dL
same,CRP,[2]; [18],1.5 mg/L
same,Ferritin,[2]; [18],985 ng/mL
same,Hg,[2]; [18],11.4 g/dL
same,Albumin,[2]; [19],4.1 g/dL
same,Ferritin,[2]; [19],580 ng/mL
same,Hg,[2]; [19],12.2 g/dL
same,Albumin,[2]; [20],4.1 g/dL
same,CRP,[2]; [20],27.5 mg/L
same,Ferritin,[2]; [20],431 ng/mL
same,Hg,[2]; [20],12.6 g/dL
same,Albumin,[2]; [21],3.9 g/dL
same,CRP,[2]; [21],28 mg/L
same,Ferritin,[2]; [21],313 ng/mL
same,Hg,[2]; [21],12.2 g/dL
same,Albumin,[2]; [22],3.8 g/dL
same,CRP,[2]; [22],12.4 mg/L
same,Ferritin,[2]; [22],332 ng/mL
same,Hg,[2]; [22],12 g/dL
same,"anemia (hemoglobin), average",[2]; [23],improvement or stabilization
same,"nutrition (albumin), average",[2]; [23],improvement or stabilization
same,"serum inflammatory marker CRP (C-reactive protein), average",[2]; [23],significant and persistent reduction
same,"serum inflammatory marker ferritin, average",[2]; [23],significant and persistent reduction
